Experimental data as given in publication PMC8070564, “Synthesis and Antiviral Activity of Camphene Derivatives against Different Types of Viruses” (Molecules, 2021).
Where two headings read alike, the source gives them in different places.

What was measured:
[1] = test system: influenza virus A/Puerto Rico/8/34 (H1N1); experiment: microbe, parasite or virus in culture; format: cell-based; conditions: H1N1, MDCK, read-out: IC50 H1N1
[2] = test system: rVSV-ΔG-MarV-GP; experiment: organism not typed; format: cell-based, Marburg pseudotype viruses; conditions: HEK-293T, read-out: IC50 MarV-GP
[3] = in vitro; conditions: dog
[4] = Cytotoxicity in HEK293T cells (Table 5); conditions: human
[5] = in vitro; conditions: human
[6] = test system: rVSV-ΔG-G; experiment: microbe, parasite or virus in culture; format: cell-based; conditions: Vesicular stomatitis virus, HEK-293T, read-out: IC50 VSV-G
[7] = test system: EBOV (strain Zaire); experiment: microbe, parasite or virus in culture; format: cell-based, Ebola virus (EBOV); conditions: for IC50: read-out: IC50 EBOV
[8] = in vitro; conditions: African green monkey
[9] = test system: rVSV-ΔG-EboV-GP; experiment: microbe, parasite or virus in culture; format: cell-based, Ebola pseudotype viruses; conditions: Zaire ebolavirus, HEK-293T, read-out: IC50 EboV-GP
[10] = test system: rVSV-ΔG-Gn-Gc; experiment: microbe, parasite or virus in culture; format: cell-based, Hantaan virus strain 76–118; conditions: Orthohantavirus hantanense, HEK-293T, read-out: IC50 rVSV-ΔG-Gn-Gc
[11] = in vitro; conditions: African green monkey; remark: listed apart in the source
[12] = test system: vaccinia virus (strain Copenhagen); experiment: microbe, parasite or virus in culture; format: cell-based; conditions: Orthopoxvirus vaccinia, Vero, read-out: IC50 VV
[13] = test system: Marburg virus (MARV) (strain Popp); conditions: cited from earlier work
[14] = test system: influenza virus A/Puerto Rico/8/34 (H1N1); conditions: cited from earlier work
[15] = test system: vaccinia virus (VV); conditions: cited from earlier work
[16] = test system: Ebola virus (EBOV) (strain Zaire); conditions: cited from earlier work

| SMILES | IC50 [1] [µM] | IC50 [2] [µM] | CC50 [3] [µM] | CC50 [5] [µM] | IC50 [9] [µM] | CC50 [11] [µM] | other results |
| --- | --- | --- | --- | --- | --- | --- | --- |
| CC1(C)[C@@H]2CC[C@@]1(C)[C@H](OCCN1CCCC1)C2 (racemic) [Compound 2a, (±)-1-(2-(1,7,7-Trimethylbicyclo(2.2.1)heptan-2-yloxy)ethyl)pyrrolidine] | 45.3 ± 5.2 | 73.6 ± 1.9 | > 1190 | 497 ± 8 | 0.12 ± 0.04 | – | CC50 [4]: 358 ± 27.8 µM; IC50 [6]: 123 ± 4 µM; IC50 ([7]; Zaire ebolavirus, Vero): 18.3 ± 3.1 µM; CC50 [8]: 231 ± 16.5 µM; IC50 [10]: 9.1 ± 1.2 µM |
| CC1(C)[C@@H]2CC[C@@]1(C)[C@H](OCCN1CCCCC1)C2 (racemic) [Compound 3a, (±)-1-(2-(1,7,7-Trimethylbicyclo(2.2.1)heptan-2-yloxy)ethyl)piperidine] | 64.8 ± 5.9 | – | > 1130 | 942 ± 18.8 | 6.3 ± 0.3 | – | CC50 [4]: 151 ± 18.8 µM; IC50 [6]: 942 ± 18.8 µM; IC50 ([7]; Zaire ebolavirus, Vero): 15.2 ± 2.1 µM; CC50 [8]: 55.9 ± 12.2 µM; IC50 [10]: 5 ± 0.8 µM |
| CC1(C)[C@@H]2CC[C@@]1(C)[C@H](OCCCN1CCCCC1)C2 (racemic) [Compound 3b, (±)-1-(3-(1,7,7-Trimethylbicyclo(2.2.1)heptan-2-yloxy)propyl)piperidine] | 347 ± 41.1 | 170 ± 3.8 | 950 ± 52.5 | 2120 ± 49.2 | 473 ± 11.4 | 140 ± 8.7 | IC50 [6]: 946 ± 22.7 µM |
| CC1CCN(CCO[C@@H]2C[C@H]3CC[C@]2(C)C3(C)C)CC1 (racemic) [Compound 4a, (±)-4-Methyl-1-(2-(1,7,7-trimethylbicyclo(2.2.1)]heptan-2-yloxy)ethyl)piperidine] | 37.9 ± 5.6 | 60.8 ± 1.8 | > 1070 | 447 ± 10.7 | 1.3 ± 0.1 | – | IC50 [6]: 111 ± 3.6 µM; IC50 EBOV [7]: did not show antiviral activity |
| CC1CCN(CCCO[C@@H]2C[C@H]3CC[C@]2(C)C3(C)C)CC1 (racemic) [Compound 4b, (±)-4-Methyl-1-(3-(1,7,7-trimethylbicyclo(2.2.1)heptan-2-yloxy)propyl)piperidine] | 69.7 ± 8.4 | 96.1 ± 3.4 | 491 ± 32.2 | 141 ± 3.4 | – | 40.9 ± 2.7 | – |
| CN1CCN(CCO[C@@H]2C[C@H]3CC[C@]2(C)C3(C)C)CC1 (racemic) [Compound 5a, (±)-1-Methyl-4-(2-(1,7,7-trimethylbicyclo(2.2.1)heptan-2-yloxy)ethyl)piperazine] | 13.2 ± 2 | 85.6 ± 1.8 | 28.5 ± 1.2 | 653 ± 14.3 | – | 100 ± 6.1 | – |
| CN1CCN(CCCO[C@@H]2C[C@H]3CC[C@]2(C)C3(C)C)CC1 (racemic) [Compound 5b, (±)-1-Methyl-4-(3-(1,7,7-trimethylbicyclo(2.2.1)heptan-2-yloxy)propyl)piperazine] | > 37.4 | – | 51 ± 4.1 | 109 ± 3.4 | – | 64.2 ± 3.1 | – |
| CC1(C)[C@@H]2CC[C@@]1(C)[C@H](OCCN1CCN(Cc3ccccc3)CC1)C2 (racemic) [Compound 6a, (±)-1-Benzyl-4-(2-(1,7,7-trimethylbicyclo(2.2.1)heptan-2-yloxy)ethyl)piperazine] | 3.4 ± 0.5 | – | 33.7 ± 2.8 | 575 ± 11.2 | – | 14 ± 1.7 | – |
| CC1(C)[C@@H]2CC[C@@]1(C)[C@H](OCCCN1CCN(Cc3ccccc3)CC1)C2 (racemic) [Compound 6b, (±)-1-Benzyl-4-(3-(1,7,7-trimethylbicyclo(2.2.1)heptan-2-yloxy)propyl)piperazine] | > 8 | 124 ± 2.7 | 10.8 ± 0.8 | 148 ± 5.4 | 67.5 ± 2.7 | 21.3 ± 2.2 | – |
| CC1(C)[C@@H]2CC[C@@]1(C)[C@H](OCCN1CCOCC1)C2 (racemic) [Compound 7a, (±)-4-(2-(1,7,7-Trimethylbicyclo(2.2.1)heptan-2-yloxy)ethyl)morpholine] | 252 ± 31.1 | 150 ± 3.7 | 385 ± 19.7 | 860 ± 22.4 | 0.6 ± 0.2 | – | CC50 [4]: 1160 ± 56.1 µM; IC50 [6]: 935 ± 26.2 µM; IC50 ([7]; Zaire ebolavirus, Vero): 5.63 µM; IC50 [7]: 5.6 ± 0.9 µM; IC50 [10]: 14.8 ± 1.9 µM |
| CC1(C)[C@@H]2CC[C@@]1(C)[C@H](OCCCN1CCOCC1)C2 (racemic) [Compound 7b, (±)-4-(3-(1,7,7-trimethylbicyclo(2.2.1)heptan-2-yloxy)propyl)morpholine] | 24.2 ± 3.1 | – | 562 ± 48.2 | 1440 ± 28.4 | – | 174 ± 11.9 | – |
| CC1(C)[C@@H]2CC[C@@]1(C)[C@H](OCCN1CCCCCC1)C2 (racemic) [Compound 8a, (±)-1-(2-(1,7,7-Trimethylbicyclo(2.2.1)heptan-2-yloxy)ethyl)azepane] | 35.3 ± 5 | 90.2 ± 3.6 | 50.5 ± 4.5 | 721 ± 14.4 | 112 ± 3.6 | 19.1 ± 2.5 | IC50 [6]: 361 ± 10.8 µM |
| CC1(C)[C@@H]2CC[C@@]1(C)[C@H](OCCCN1CCCCCC1)C2 (racemic) [Compound 8b, (±)-1-(3-((1,7,7-Trimethylbicyclo(2.2.1)heptan-2-yloxy)propyl)azepane] | 320 ± 36.9 | – | 374 ± 22.8 | 704 ± 10.3 | – | 23.7 ± 2.7 | – |
| Nc1ccn(C[C@@H](CO)OCP(=O)(O)O)c(=O)n1 [Cidofovir, reference compound] | – | – | – | – | – | 475 ± 30.1 | IC50 [12]: 40 ± 1.2 µM |
| CC1(C)[C@H]2CC[C@]1(C)[C@H](OC(=O)CCN1CCCCC1)C2 [Ia] | – | – | – | – | – | – | IC50 [13]: 3.7 µM; IC50 [14]: 7.8 µM; IC50 [15]: 121 µM; IC50 [16]: 47.5 µM |
| CC1CCN(CCC(=O)O[C@@H]2C[C@@H]3CC[C@@]2(C)C3(C)C)CC1 [Ib] | – | – | – | – | – | – | IC50 [13]: 2.2 µM; IC50 [14]: 15.3 µM; IC50 [16]: 54.3 µM |
| CN1CCN(CCC(=O)O[C@@H]2C[C@@H]3CC[C@@]2(C)C3(C)C)CC1 [Ic] | – | – | – | – | – | – | IC50 [14]: 1.9 µM; IC50 [15]: 64.8 µM |
| CC1(C)[C@H]2CC[C@]1(C)[C@H](OC(=O)CCN1CCOCC1)C2 [Id] | – | – | – | – | – | – | IC50 [14]: 12.2 µM; IC50 [15]: 3.4 µM |
| NC(=O)c1ncn([C@@H]2O[C@H](CO)[C@@H](O)[C@H]2O)n1 [Ribavirin, reference compound] | 24.6 ± 3.7 | – | > 2000 | – | – | – | – |
| CC(N)C12CC3CC(CC(C3)C1)C2 (stereo not drawn) [Rimantadine, reference compound] | 67 ± 4.9 | – | 335 ± 27 | – | – | – | – |
| O=C(NN1C(=O)[C@@H]2[C@@H]3C=C[C@@H]([C@H]4C[C@@H]34)[C@@H]2C1=O)c1ccc(C(F)(F)F)cc1 [ST-246, reference compound] | – | – | – | – | – | 1280 ± 202 | IC50 [12]: 0.01 ± 0.003 µM |
| CN[C@H]1CC[C@@H](c2ccc(Cl)c(Cl)c2)c2ccccc21 [Sertraline, sertraline, reference compound] | – | – | – | 408 ± 35.9 | – | – | – |
